Converted amounts (≈) assume the structure as drawn. “And” between values parts separate entries of the source, which are not always exact repeats. Equal entries are not always repeated. Where two headings read alike, the source gives them in different places.
Experiments:
PDE III = details: cited from earlier work; for IC50 inhibition of PDE III / IC50: in vitro; for IC50: read-out: IC50 inhibition of PDE III
[1] = cited from earlier work; for peak plasma levels: after a typical 1 mg clinical dose
VEGF = details: ET patients; HU 1.25 g/day, IFN-α 1.5×10^6 units/day, anagrelide 1.5 mg/day; cited from earlier work
PF4 = details: ET patients; HU 1.25 g/day, IFN-α 1.5×10^6 units/day, anagrelide 1.5 mg/day; cited from earlier work
[2] = cited from earlier work
[3] = tested on: megakaryocytes (MKs) from human umbilical cord blood-derived CD34+ haematopoietic cells; assay: Co-culture of COV362 cells and developing megakaryocytes (MK expansion, CD61 flow cytometry); type: cell-based; details: anagrelide 1 μM
Procedure: Cells and drug treatment—Megakaryocytes (MKs) were generated ex-vivo essentially as previously described (Ahluwalia M et al 2010). In brief, to promote terminal megakaryocytic differentiation pre-expanded human umbilical cord blood-derived CD34^+ haematopoietic cells were cultured for 7 days in Stemspan™ SFEM II medium (Stem Cell Technologies) supplemented with 1% human umbilical cord blood plasma and 40 ng/ml thrombopoietin (TPO) unless otherwise indicated (MK medium). […]
The human ovarian cancer cell line COV362 was grown in Iscove's modified Dulbecco's medium (IMDM) supplemented with 2 mM glutamine and 10% foetal bovine serum (FBS). Cell cultures were maintained at 37° C. in a humidified incubator under 5% CO2/95% air.
Co-culture experiments—Co-culture of COV362 cells (COVs) and developing MKs was carried out in a modified Boyden Chamber (BD Falcon, BD Biosciences, Oxford, UK) consisting of a cup-shaped cell culture insert resting inside the well of a 24-well companion plate, with the bottom of the insert made of a permeable microporous polyethylene terephthalate (PET) membrane having a pore size of 0.4 μm.
In experiments examining the effects of COVs on MK development, COVs were seeded in the companion plate at various cells densities and grown for 4 days prior to mounting the inserts. Then, the medium in the companion plate was removed and replaced with fresh MK medium. Immediately thereafter the pre-expanded haematopoietic cells were seeded in the insert. After seven days of co-culture the cells growing in the inserts were harvested for analysis of MK development.
Analysis of megakaryocyte development—Cell density was determined using a Casy TT Cell counter (Innovatis, Germany) set with a lower cut-off limit of ˜7.5 μm. MK-specific antigen expression was monitored by flow cytometry using a fluorescein isothiocyanate-conjugated anti-CD61 antibody (clone Y2/51, Dako, Ely, UK) as previously described (Wang G et al 2005). The number of MKs was calculated by multiplying the total number of cells in the culture by the fraction of CD61 positive cells.

[4] = cited from earlier work; remark: listed apart in the source
cancer cells = details: mice; cited from earlier work
COV362 cells = assay: Transmigration assay of COV362 cells towards MK cultures (modified Boyden chamber); type: cell-based, human
Procedure: Transmigration assay—Transmigration of human ovarian cancer cells, COV362 cells (COVs), was examined in a well established model of cancer cell migration (Hart et al 2005) and Kramer et al 2013) which employed the modified Boyden chamber described above but using inserts with a larger 8μm pore PET membrane. […] In this case pre-expanded haematopoietic cells were grown for 7 days in MK medium in the wells of the companion plate prior to placement of the inserts. Inserts were then positioned inside these MK-containing wells or in parallel wells filled with and equivalent volume of MK medium alone. A suspension of 0.35 mL COVs cells made in plasma-free MK medium at a density of 2.86×10^5cells/ml was then loaded onto the inserts and allowed to trans-migrate through the PET membrane for up to 24 h at 37° C. in a tissue culture incubator. At various time points the transmigration assay was terminated by removing the insert from the well of the companion plate and aspirating its contents. After washing the inserts with phosphate-buffered saline (PBS) non-migrating cells attached to the upper side of the PET membrane were scraped off with cotton swabs soaked in PBS. […] Bright field digital photomicrographs were taken in five random fields at 100× magnification and the average number of cells per field was determined by manual counting.

[5] = cited from earlier work; remark: listed apart in the source
megakaryocytes = details: cited from earlier work
[6] = Aqueous solubility of anagrelide; type: physicochemical
[7] = tested on: various cancer cell lines; details: in vitro; WO2014/183673; read-out: IC50 apoptosis in cancer cell lines; cited from earlier work
[8] = up to concentration of 1 μM; cited from earlier work
[9] = cited from earlier work; remark: listed apart in the source
[10] = human, in vivo; cited from earlier work
ovarian cancer = details: mouse models of ovarian cancer; cited from earlier work

O=C1NC2=Nc3ccc(Cl)c(Cl)c3CN2C1O (stereo not drawn) [3-hydroxy anagrelide]
PDEIII inhibitory potency relative to anagrelide (PDE III; Wang et al, 2005): ~40 fold
cardiostimulant potency relative to the parent drug (PDE III): 40 fold
IC50 inhibition of PDE III (PDE III): 0.2 ng/mL
IC50 (PDE III): 0.0007 µM
peak plasma levels ([1]; listed as metabolite): 29 nM and ~8 ng/mL
plasma concentrations of metabolite relative to parent drug ([1]; clinical practice, Martinez-Selles et al, 2013): 2-3 fold

NC(=O)NO [HU, hydroxyurea]
VEGF levels after treatment (VEGF): Neither HU nor IFα brought PF4 and VEGF down
PF4 levels after treatment (PF4): Neither HU nor IFα brought PF4 and VEGF down

O=C1CN2Cc3c(ccc(Cl)c3Cl)N=C2N1 [anagrelide]
VEGF levels after treatment (VEGF): reduced the PF4 and VEGF levels to normal
aqueous solubility ([2]; between pH 4-8): ~1.0 µg/mL (≈ 3.9 µM)
aqueous solubility ([2]; pH1): 236 µg/mL (≈ 922 µM)
water solubility ([2]; pH7): ~1.0 µg/mL (≈ 3.9 µM)
water solubility ([2]; pH of ~3): 250 µg/mL (≈ 976 µM)
inhibition at 1 µM ([3]; Homo sapiens, 168 h, absence of COVs, 7 days, read-out: inhibition of thrombopoietin driven MK expansion): ~50%
stimulatory effects of COVs on MK expansion ([3]; COVs seeded at 1000cells/mL): completely abolished
expected increase in MK expansion with COVs ([3]; COVs seeded at 3000cells/mL): more than halved
oral bioavailability [4]: less than 50%
circulation time of cancer cells (cancer cells): increase in circulation time of cancer cells
attractant properties for COVs of MK cultures grown with drug (COV362 cells; anagrelide 1 μM, overnight incubation (FIG. 3)): no attractant properties
attractant properties for COVs of MKs grown with drug (COV362 cells; clinically relevant concentrations, 16 h (FIG. 4)): loss of attractant properties
patients discontinuing drug treatment due to cardiovascular side-effects ([5]; Birgegard et al, 2004): ~25%
patients with idiopathic cardiomyopathy ([5]; of 434 patients with essential thrombocythaemia and polycythemia vera, Jurgens et al 2004): 11
IC50 inhibition of PDE III (PDE III): 8.2 ng/mL
IC50 (PDE III): 0.032 µM
in vitro anti-megakaryocytic IC50 (megakaryocytes): 7 ng/mL
IC50 (megakaryocytes; read-out: in vitro anti-megakaryocytic IC50): 0.026 µM
FDA Biopharmaceutics Classification System class [6]: low solubility/high permeability
PF4 levels after treatment (PF4): reduced the PF4 and VEGF levels to normal
IC50 [7]: 0.1 µM
apoptopic effects [8]: no apoptopic effects
peak plasma levels [1]: 16 nM and ~4 ng/mL

Cc1ncc2n1-c1ccc(Cl)cc1C(c1ccccc1F)=NC2 [midazolam]
bioavailablity ([9]; given orally): ~30%
bioavailablity ([9]; intranasal spray): 87%

siltuximab: IL-6 antibody
upper respiratory infections, share of patients [10]: > 20%
platelet count (ovarian cancer): significantly reduced
tumour growth (ovarian cancer): significantly reduced

Source: patent US11324746B2, “Use of anagrelide for treating cancer” (Arovella Therapeutics Limited, priority 2014, dated 2022)
